Measured values taken from paper PMC11960969, “Mdga2 deficiency leads to an aberrant activation of BDNF/TrkB signaling that underlies autism-relevant synaptic and behavioral changes in mice” (PLOS Biology, 2025).

Assays:
mice [1] = assay: Novel location recognition (NLR) test; assay type: in vivo, mouse
Procedure: (§1) Six- to eight-week-old male mice were subjected to various behavioral tests. Mice were allowed to acclimatize in the testing room for 1 h prior to each test. Data were recorded and analyzed using Smart 3.0 video tracking system (Panlab, Harvard Apparatus).
This test consists of habituation, training, and testing phases. Mice were first put into the open field apparatus described above for 10 min habituation. During the training phase, mice were allowed to freely explore two identical objects placed near two opposite corners of the open field arena for 8 min. Twenty-four hour later, one of the objects was moved to be close to a third corner (N: Novel location) while the other one was kept in the same spatial position (F: Familiar location). Mice were then tested for their exploration behavior with these objects for 8 min. The discrimination index (T(N − F)/T(N + F): time spent exploring the novel location minus time spent in familiar location over time spent to both novel and familiar location) was calculated to assess the recognition memory of mice.

[2] = system: CA1 pyramidal neurons (mEPSC, mIPSC); assay: Whole-cell recording of mEPSCs and mIPSCs in hippocampal slices; parameters: species or system mouse; settings: chronic 0.5 mg/kg i.p.
mice [3] = assay: Open field test; assay type: in vivo, mouse
Procedure: as §1
Mice were gently placed in the center of an open field apparatus (40 × 40 × 40 cm), and allowed for a 10-min period of free movement. Total distance traveled and time spent in center were analyzed.

[4] = system: TrkB signaling and synaptic proteins (pTrkB, pAkt, pmTOR, NLGN1, PSD-95, PSD-93); assay: Immunoblotting of TrkB signaling and synaptic proteins in primary neurons treated with ANA-12; assay type: cell-based, mouse; settings: primary neurons from Mdga2+/- and Mdga2-/- mice, 10 μM, 24 h, n = 3
[5] = system: cell surface GluA1, GluN1; assay: Cell surface biotinylation of GluA1 and GluN1 in hippocampal neurons; assay type: cell-based, mouse; settings: 10 μM ANA-12, 24 h, 12 DIV
Procedure: ANA-12 was dissolved in saline containing 10% DMSO to a final concentration of 0.5 mg/kg and intraperitoneally administered into male mice. For chronic treatment, ANA-12 was administered to 3-week-old male mice at twice/week for 3 weeks until mice reached 6 weeks of age. For acute treatment, ANA-12 was administered to 4-week-old male mice for three consecutive days. For and cultured neurons, ANA-12 was suspended to a 10 mM concentration in DMSO and diluted 1:1,000 in solution. Final concentration for treatment is 10 µ M with 0.1% DMSO.
Supplementary file pbio.3003047.s005.tif: S5 Fig Pharmacological inhibition of […] improves social behaviors in Mdga2 ^+/− mice. (A, B) The miniature inhibitory postsynaptic currents (mIPSCs) of hippocampal neurons in treated Het mice and their wild-type (WT) littermates were recorded and their kinetics (rise time and decay) were quantified for comparison. n = 14 cells from 3 mice per group. (C, D) The miniature excitatory postsynaptic currents (mEPSCs) of hippocampal neurons in treated mice were recorded and their kinetics (rise time and decay) were quantified for comparison. n = 14 cells from 3 mice per group. (E) Representative traces of evoked NMDAR-mediated EPSCs and quantitative analysis of evoked NMDAR-mediated EPSC amplitude with increasing stimulus intensity. n = 20–23 cells from 3 mice per group. […]

[6] = system: TrkB signaling (pTrkB, pAkt, pmTOR); assay: Immunoblotting of TrkB signaling in hippocampus / brain of treated mice; assay type: in vivo, mouse; settings: AAV-Mdga2 shRNA mice, n = 4, Fig 6E and 6H
mice [7] = assay: Self-grooming test; assay type: in vivo, mouse; settings: Mdga2+/- mice, chronic 0.5 mg/kg i.p.; Test 1 Interaction F(1,56) = 0.1344, p = 0.7153; Test 2 F(1,56) = 0.2389, p = 0.6269
Procedure: as §1
Tested mice were placed individually in a clean cage with fresh bedding. After 5 min of habituation, the spontaneous behaviors of mice were recorded for 30 min and their self-grooming behavior was analyzed.

O=C(Nc1ccccc1C(=O)NC1CCCCNC1=O)c1cc2ccccc2s1 (centres unmarked) [ANA-12, reference compound]
impaired recognition memory (mice [1]; AAV-Mdga2 shRNA mice, S6C and S6G Fig): neither ANA-12 nor the MDGA2-P2 peptide had effect on rescuing impaired recognition memory | impaired cognitive function (mice [1]; Mdga2+/- mice, acute 0.5 mg/kg i.p. 3 days, Test 1 Interaction F(1,56) = 3.941, p = 0.0520, Test 2 F(1,56) = 0.9635, p = 0.3305): nor did it attenuate impaired cognitive function | recognition memory (mice [1]; Mdga2+/- mice, chronic 0.5 mg/kg i.p. twice per week 3 weeks, Test 1 Interaction F(1,56) = 0.6210, p = 0.4340, Test 2 F(1,56) = 0.7506, p = 0.3900): did not affect the locomotor activity (Fig 5B) or recognition memory | increased mEPSC amplitude and frequency ([2]; Mdga2+/- mice, CA1, n = 14 cells from 3 mice, Interaction F(1,52) = 6.023, p = 0.0175, 5.282, p = 0.0256): reversed the increased mEPSC amplitude and frequency | mIPSC frequency or amplitude ([2]; hippocampal slices CA1, n = 15 cells from 3 mice, Interaction F(1,56) = 0.5436, p = 0.4640, 0.0127, p = 0.9106): nor did chronic ANA-12 treatment affect mIPSC frequency or amplitude | locomotor activity (mice [3]; Mdga2+/- mice, chronic 0.5 mg/kg i.p. twice per week 3 weeks, Test 1 Interaction F(1,56) = 0.2753, p = 0.6019, Test 2 F(1,56) = 0.2774, p = 0.6005): did not affect the locomotor activity | locomotor activity (mice [3]; acute: 0.5 mg/kg i.p. once daily 3 days, Test 1 Interaction F(1,56) = 0.3413, p = 0.5614, Test 2 F(1,56) = 0.1904, p = 0.6643): did not affect locomotor activity | increased levels of pTrkB, pAkt, pmTOR, NLGN1, PSD-95, and PSD-93 [4]: effectively reversed increased levels of pTrkB, pAkt, pmTOR, NLGN1, PSD-95, and PSD-93 | cell surface distribution of GluA1 in MDGA2-deficient vs WT neurons [5]: became comparable between these neurons upon ANA-12 treatment | elevated TrkB signaling [6]: reversed the elevated TrkB signaling | repetitive self-grooming behavior (mice [7]): no rescuing effect on repetitive self-grooming behavior
